The values that follow come from patent US10793568B2, “Hormone receptor modulators for treating metabolic conditions and disorders” (ARDELYX, INC., priority 2016, dated 2020).

Test [1] addresses human Farnesoid X receptor ligand-binding domain/Gal4 DNA binding domain chimera (Homo sapiens (Human), UniProt Q96RI1). Briefly: Cell-based assay of FXR activation (FXR-UAS-bla HEK 293T beta-lactamase reporter). The following applies: cellular FXR beta-lactamase reporter assay; for Emax: HEK-293T, extent of activation relative to GW4064, read-out: % Efficacy; for EC50: FXR-UAS-bla HEK 293T cells, 16 h, pEC50 = -log EC50. In a few lines: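 HEK 293T cells stably expressing a Gal4-fused human FXR LBD and a UAS-driven beta-lactamase reporter were incubated with serially diluted compounds for 16 h at 37 °C in phenol red-free DMEM with 2% charcoal-stripped FBS. CCF4 FRET read-out: excitation 409 nm, emission 447 nm. pEC50 comes from a 3-parameter logistic fit, and efficacy is given as % of GW4064.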
(A reporter such as luciferase makes a cellular process visible.)

Test [2] has as its target ligand binding domain of human FXR (Homo sapiens (Human), UniProt Q96RI1). Briefly: FXR ligand binding assay (LanthaScreen TR-FRET, SRC2-2 peptide recruitment). To be noted: for pEC50: -log EC50, concentration required to produce 50% activation; for Emax: extent of activation relative to GW4064, read-out: % Efficacy. In general terms: TR-FRET usually uses a lanthanide donor and a delayed reading to cut background.

ligand binding domain of human FXR, sequence (Q96RI1 262-486): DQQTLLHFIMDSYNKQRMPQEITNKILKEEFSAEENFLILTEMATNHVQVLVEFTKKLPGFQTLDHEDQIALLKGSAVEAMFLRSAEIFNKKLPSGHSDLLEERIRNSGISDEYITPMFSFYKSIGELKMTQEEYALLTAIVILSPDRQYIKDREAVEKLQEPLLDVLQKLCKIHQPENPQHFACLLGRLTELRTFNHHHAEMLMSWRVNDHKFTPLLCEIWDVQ
human Farnesoid X receptor ligand-binding domain/Gal4 DNA binding domain chimera, sequence (Q96RI1 262-486, change not shown): as the sequence (Q96RI1 262-486) above
human Farnesoid X receptor ligand-binding domain/Gal4 DNA binding domain chimera, sequence (P04386 1-147 partner): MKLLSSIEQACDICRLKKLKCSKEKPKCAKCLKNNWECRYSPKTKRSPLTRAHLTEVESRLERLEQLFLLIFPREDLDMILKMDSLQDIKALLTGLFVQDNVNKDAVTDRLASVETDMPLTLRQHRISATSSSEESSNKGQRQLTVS

As to `O=C(NS(=O)(=O)C1CC1)c1ccc(N2C[C@H]3C[C@@H]2C[C@@H]3OCc2c(-c3c(Cl)cccc3Cl)noc2C2CC2)c(F)c1` [Compound I-231, 4-((1R,4R,5S)-5-((5-cyclopropyl-3-(2,6-dichlorophenyl)isoxazol-4-yl)methoxy)-2-azabicyclo[2.2.1]heptan-2-yl)-N-(cyclopropylsulfonyl)-3-fluorobenzamide], in test [1], the Emax is 106% and the EC50 – broadly, the concentration needed to bring the measured effect to its halfway point – is 15.8 nM. Moreover, in test [2], the pEC50 (usually −log10 of the EC50, conventionally taken in molar units) worked out at 8.4 and the Emax came out at 110%.

For `O=C(NS(=O)(=O)C1CC1)c1ccc(N2C[C@H]3C[C@@H]2C[C@@H]3OCc2c(-c3c(Cl)cccc3Cl)noc2C2CC2)cc1` [Compound I-232, 4-((1R,4R,5S)-5-((5-cyclopropyl-3-(2,6-dichlorophenyl)isoxazol-4-yl)methoxy)-2-azabicyclo[2.2.1]heptan-2-yl)-N-(cyclopropylsulfonyl)benzamide], in test [1], the Emax was found to be 93% and the EC50 was 25.1 nM. In test [2], the pEC50 came to 8.1 and the Emax stood at 126%.

`Cn1nc(C(=O)NS(=O)(=O)C2CC2)cc1N1C[C@@H]2C[C@H]1C[C@H]2OCc1c(-c2c(Cl)cccc2Cl)noc1C1CC1` [Compound I-233, N-(cyclopropanesulfonyl)-5-[(1S,4S,5R)-5-{[5-cyclopropyl-3-(2,6-dichlorophenyl)-1,2-oxazol-4-yl]methoxy}-2-azabicyclo[2.2.1]heptan-2-yl]-1-methyl-1H-pyrazole-3-carboxamide]: the EC50 in test [1] was under 31.6 nM. Also, in test [2], the pEC50 is 7.8 and the Emax was 77%.

As to `O=C(NS(=O)(=O)C1CC1)c1ccc([N+]2([O-])C[C@@H]3C[C@H]2C[C@H]3OCc2c(-c3c(Cl)cccc3Cl)noc2C2CC2)cc1` (stereo partly drawn) [Compound I-234, (1S,4S,5R)-2-{4-[(cyclopropanesulfonyl)carbamoyl]phenyl}-5-{[5-cyclopropyl-3-(2,6-dichlorophenyl)-1,2-oxazol-4-yl]methoxy}-2-azabicyclo[2.2.1]heptan-2-ium-2-olate], in test [1], the Emax was 102% and the EC50 was 1.58 nM. Further, in test [2], the pEC50 came to 8.1 and the Emax is 146%.

As for `O=C(CCc1ccc(N2C[C@@H]3C[C@H]2C[C@H]3OCc2c(-c3c(F)cccc3Cl)noc2C2CC2)c(F)c1)NS(=O)(=O)C1CCOCC1` [Compound I-235, 3-{4-[(1S,4S,5R)-5-{[3-(2-chloro-6-fluorophenyl)-5-cyclopropyl-1,2-oxazol-4-yl]methoxy}-2-azabicyclo[2.2.1]heptan-2-yl]-3-fluorophenyl}-N-(oxane-4-sulfonyl)propanamide], in test [1], the Emax was found to be 94% and the EC50 is 3.98 nM. Also, in test [2], the negative-log EC50 (pEC50) was found to be 8.2 and the Emax stood at 176%.

As for `CS(=O)(=O)NC(=O)CCc1ccc(N2C[C@@H]3C[C@H]2C[C@H]3OCc2c(-c3c(Cl)cccc3Cl)noc2C2CC2)c(F)c1` [Compound I-236, 3-(4-((1S,4S,5R)-5-((5-cyclopropyl-3-(2,6-dichlorophenyl)isoxazol-4-yl)methoxy)-2-azabicyclo[2.2.1]heptan-2-yl)-3-fluorophenyl)-N-(methylsulfonyl)propanamide], in test [1], the Emax came to 95% and the midpoint of the response, the EC50, lay at 2.51 nM. In test [2], the pEC50 is 8.4 and the Emax amounted to 156%.

Consider `O=C(CCc1ccc(N2C[C@@H]3C[C@H]2C[C@H]3OCc2c(-c3c(Cl)cccc3Cl)noc2C2CC2)c(F)c1)NS(=O)(=O)C1CC1` [Compound I-237, 3-(4-((1S,4S,5R)-5-((5-cyclopropyl-3-(2,6-dichlorophenyl)isoxazol-4-yl)methoxy)-2-azabicyclo[2.2.1]heptan-2-yl)-3-fluorophenyl)-N-(cyclopropylsulfonyl)propanamide], for which, in test [1], the Emax was 94% and the EC50 was 2.51 nM. In test [2], the pEC50 was found to be 8.7 and the Emax is 162%.

As to `O=C(CCc1ccc(N2C[C@@H]3C[C@H]2C[C@H]3OCc2c(-c3c(Cl)cccc3Cl)noc2C2CC2)c(F)c1)NS(=O)(=O)C1CCOCC1` [Compound I-238, 3-(4-((1S,4S,5R)-5-((5-cyclopropyl-3-(2,6-dichlorophenyl)isoxazol-4-yl)methoxy)-2-azabicyclo[2.2.1]heptan-2-yl)-3-fluorophenyl)-N-((tetrahydro-2H-pyran-4-yl)sulfonyl)propanamide], in test [1], the Emax was 95% and it took 2.51 nM to reach a half-maximal effect (EC50). Besides, in test [2], the pEC50 worked out at 8.6 and the Emax is 176%.

For the molecule `CS(=O)(=O)NC(=O)CCc1ccc(N2C[C@@H]3C[C@H]2C[C@H]3OCc2c(-c3c(F)cccc3Cl)noc2C2CC2)c(F)c1` [Compound I-239, 3-(4-((1S,4S,5R)-5-((3-(2-chloro-6-fluorophenyl)-5-cyclopropylisoxazol-4-yl)methoxy)-2-azabicyclo[2.2.1]heptan-2-yl)-3-fluorophenyl)-N-(methylsulfonyl)propanamide], in test [1], the Emax was 94% and a half-maximal effect (EC50) was put at 7.94 nM. In addition, in test [2], the pEC50 came out at 8.2 and the Emax is 176%.

As for `O=C(CCc1ccc(N2C[C@@H]3C[C@H]2C[C@H]3OCc2c(-c3c(F)cccc3Cl)noc2C2CC2)c(F)c1)NS(=O)(=O)C1CC1` [Compound I-240, 3-(4-((1S,4S,5R)-5-((3-(2-chloro-6-fluorophenyl)-5-cyclopropylisoxazol-4-yl)methoxy)-2-azabicyclo[2.2.1]heptan-2-yl)-3-fluorophenyl)-N-(cyclopropylsulfonyl)propanamide], in test [1], the Emax is 92% and the midpoint of the response, the EC50, lay at 6.31 nM. Further, in test [2], the pEC50 was determined as 8.1 and the Emax came to 162%.

Take `Cc1cccc(Cl)c1-c1noc(C2CC2)c1CO[C@@H]1C[C@@H]2C[C@H]1CN2c1ccc(CCC(=O)NS(C)(=O)=O)cc1F` [Compound I-241, 3-(4-((1S,4S,5R)-5-((3-(2-chloro-6-methylphenyl)-5-cyclopropylisoxazol-4-yl)methoxy)-2-azabicyclo[2.2.1]heptan-2-yl)-3-fluorophenyl)-N-(methylsulfonyl)propanamide]: in test [1], the Emax turned out to be 98% and the EC50 was 10 nM. For the same molecule, in test [2], the pEC50 came out at 8 and the Emax worked out at 176%.

For `Cc1cccc(Cl)c1-c1noc(C2CC2)c1CO[C@@H]1C[C@@H]2C[C@H]1CN2c1ccc(CCC(=O)NS(=O)(=O)C2CC2)cc1F` [Compound I-242, 3-(4-((1S,4S,5R)-5-((3-(2-chloro-6-methylphenyl)-5-cyclopropylisoxazol-4-yl)methoxy)-2-azabicyclo[2.2.1]heptan-2-yl)-3-fluorophenyl)-N-(cyclopropylsulfonyl)propanamide], in test [1], the Emax was 97% and the EC50 is 10 nM. For the same molecule, in test [2], the pEC50 is 8.2 and the Emax is 182%.

`Cc1cccc(Cl)c1-c1noc(C2CC2)c1CO[C@@H]1C[C@@H]2C[C@H]1CN2c1ccc(CCC(=O)NS(=O)(=O)C2CCOCC2)cc1F` [Compound I-243, 3-(4-((1S,4S,5R)-5-((3-(2-chloro-6-methylphenyl)-5-cyclopropylisoxazol-4-1)methoxy)-2-azabicyclo[2.2.1]heptan-2-yl)-3-fluorophenyl)-N-((tetrahydro-2H-pyran-4-yl)sulfonyl)propanamide]: in test [1], the Emax turned out to be 98% and it took 6.31 nM to reach a half-maximal effect (EC50). In test [2], the pEC50 was 8.4 and the Emax was 182%.

Regarding `O=C(O)c1ccc(N2C(=O)[C@@H]3C[C@H]2C[C@H]3OCc2c(-c3c(Cl)cccc3Cl)noc2C2CC2)cc1` [Compound I-244, 4-[(1S,4R,5R)-5-{[5-cyclopropyl-3-(2,6-dichlorophenyl)-1,2-oxazol-4-yl]methoxy}-3-oxo-2-azabicyclo[2.2.1]heptan-2-yl]benzoic Acid], in test [1], the Emax was found to be 102% and the EC50 was 2 nM. Besides, in test [2], the pEC50 worked out at 8.4 and the Emax was 130%.

As for `O=C(O)c1ccc(N2C(=O)[C@@H]3C[C@H]2C[C@@H]3OCc2c(-c3c(Cl)cccc3Cl)noc2C2CC2)cc1` [Compound I-245, 4-[(1S,4R,5S)-5-{[5-cyclopropyl-3-(2,6-dichlorophenyl)-1,2-oxazol-4-yl]methoxy}-3-oxo-2-azabicyclo[2.2.1]heptan-2-yl]benzoic Acid], in test [1], the Emax stood at 0% and the EC50 is under 31.6 nM. The pEC50 in test [2] is recorded as over 5.5.

For the molecule `CCc1cc(C(=O)O)cc2sc(N3C[C@@H]4C[C@H]3C[C@H]4OCc3c(-c4c(Cl)cccc4Cl)noc3C3CC3)nc12` [Compound I-246, 2-[(1S,4S,5R)-5-{[5-cyclopropyl-3-(2,6-dichlorophenyl)-1,2-oxazol-4-yl]methoxy}-2-azabicyclo[2.2.1]heptan-2-yl]-4-ethyl-1,3-benzothiazole-6-carboxylic Acid], in test [1], the Emax worked out at 113% and the EC50 is 0.251 nM. Moreover, in test [2], the pEC50 was 8.5 and the Emax was 136%.

As for `CC(C)c1cc(C(=O)O)cc2sc(N3C[C@@H]4C[C@H]3C[C@H]4OCc3c(-c4c(Cl)cccc4Cl)noc3C3CC3)nc12` [Compound I-247, 2-[(1S,4S,5R)-5-{[5-cyclopropyl-3-(2,6-dichlorophenyl)-1,2-oxazol-4-yl]methoxy}-2-azabicyclo[2.2.1]heptan-2-yl]-4-(propan-2-yl)-1,3-benzothiazole-6-carboxylic Acid], in test [1], the Emax came to 114% and the EC50 was 2 nM. Moreover, in test [2], the pEC50 is on record as 8.5 and the Emax worked out at 128%.
